Like-named read-outs stand apart in the source and are kept apart here.
Assays:
[1] = molecular target: serotonin transporters (SERT) (Rattus norvegicus, UniProt P31652); assay: [3H]serotonin uptake inhibition via SERT in rat brain synaptosomes; assay type: cell-based
DAT = settings: read-out: binding affinity toward DAT IC50; [3H]WIN-35,428; cited from earlier work
[2] = cited from earlier work
[3] = molecular target: dopamine transporters (DAT) (Rattus norvegicus, UniProt P23977); assay: [3H]dopamine uptake inhibition via DAT in rat brain synaptosomes; assay type: cell-based
Chain of dopamine transporters (DAT) (P23977 whole entry): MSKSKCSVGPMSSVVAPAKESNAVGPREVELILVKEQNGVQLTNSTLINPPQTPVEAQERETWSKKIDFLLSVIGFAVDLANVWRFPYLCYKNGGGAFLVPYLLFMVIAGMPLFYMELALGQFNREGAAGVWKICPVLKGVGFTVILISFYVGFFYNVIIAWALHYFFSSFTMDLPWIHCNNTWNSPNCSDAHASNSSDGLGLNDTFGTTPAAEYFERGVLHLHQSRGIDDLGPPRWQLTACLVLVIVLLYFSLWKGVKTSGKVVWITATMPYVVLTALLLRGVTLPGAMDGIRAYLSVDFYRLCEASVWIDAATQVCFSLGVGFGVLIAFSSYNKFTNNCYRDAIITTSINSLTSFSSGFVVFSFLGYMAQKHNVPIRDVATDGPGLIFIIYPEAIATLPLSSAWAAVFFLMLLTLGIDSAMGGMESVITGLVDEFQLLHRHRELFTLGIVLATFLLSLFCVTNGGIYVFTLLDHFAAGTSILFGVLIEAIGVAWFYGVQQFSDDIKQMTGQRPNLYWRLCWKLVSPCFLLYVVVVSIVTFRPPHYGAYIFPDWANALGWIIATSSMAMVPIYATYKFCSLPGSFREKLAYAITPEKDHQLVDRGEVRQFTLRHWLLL

[4] = molecular target: norepinephrine transporters (NET) (Rattus norvegicus, UniProt Q63380); assay: [3H]norepinephrine uptake inhibition via NET in rat brain synaptosomes; assay type: cell-based; settings: times less potent, from IC50 values
Chain of norepinephrine transporters (NET) (Q63380 1-617): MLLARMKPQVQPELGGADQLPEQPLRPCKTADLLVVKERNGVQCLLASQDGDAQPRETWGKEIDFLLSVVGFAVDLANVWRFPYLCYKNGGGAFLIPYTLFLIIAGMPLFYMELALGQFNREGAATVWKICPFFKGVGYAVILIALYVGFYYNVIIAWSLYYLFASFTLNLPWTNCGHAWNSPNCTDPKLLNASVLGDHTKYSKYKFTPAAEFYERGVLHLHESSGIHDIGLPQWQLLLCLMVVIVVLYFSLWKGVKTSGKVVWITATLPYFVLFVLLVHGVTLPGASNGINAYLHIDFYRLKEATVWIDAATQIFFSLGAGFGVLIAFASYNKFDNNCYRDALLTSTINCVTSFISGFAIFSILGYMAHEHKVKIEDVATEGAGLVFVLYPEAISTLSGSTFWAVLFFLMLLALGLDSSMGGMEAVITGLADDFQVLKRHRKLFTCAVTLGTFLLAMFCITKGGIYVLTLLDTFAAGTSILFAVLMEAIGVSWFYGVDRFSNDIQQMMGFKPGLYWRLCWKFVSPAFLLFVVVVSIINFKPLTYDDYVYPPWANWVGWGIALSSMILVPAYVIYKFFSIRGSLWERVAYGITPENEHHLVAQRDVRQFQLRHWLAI

[5] = read-out: [3H]5-HT uptake via SERT IC50, rat brain synaptosomes, 5 nM [3H]serotonin, mean ± SD, n = 3

Chain of serotonin transporters (SERT) (P31652 whole entry): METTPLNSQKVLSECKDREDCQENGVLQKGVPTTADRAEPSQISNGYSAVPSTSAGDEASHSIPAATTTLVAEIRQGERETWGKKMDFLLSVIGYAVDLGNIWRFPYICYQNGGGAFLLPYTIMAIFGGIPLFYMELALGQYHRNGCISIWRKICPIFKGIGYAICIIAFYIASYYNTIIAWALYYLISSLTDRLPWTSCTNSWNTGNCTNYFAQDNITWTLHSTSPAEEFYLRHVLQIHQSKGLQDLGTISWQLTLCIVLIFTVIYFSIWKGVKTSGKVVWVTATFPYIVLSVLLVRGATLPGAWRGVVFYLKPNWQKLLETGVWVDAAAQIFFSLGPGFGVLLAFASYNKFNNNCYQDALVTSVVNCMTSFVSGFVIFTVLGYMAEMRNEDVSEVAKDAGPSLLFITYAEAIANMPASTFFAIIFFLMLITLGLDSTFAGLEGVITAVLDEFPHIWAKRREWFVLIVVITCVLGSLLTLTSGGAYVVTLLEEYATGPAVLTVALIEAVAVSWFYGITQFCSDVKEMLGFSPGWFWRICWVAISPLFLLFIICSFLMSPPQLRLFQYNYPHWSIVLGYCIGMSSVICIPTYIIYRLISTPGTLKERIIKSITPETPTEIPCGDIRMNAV

Structure (SMILES) | IC50 [1, 5] [µM] | IC50 (DAT) [µM] | potency relative to MPH in drug discrimination [2] | IC50 [3] [µM] | potency relative to (±)-threo-4F-MPH at the norepinephrine transporter [4] | IC50 [1] [µM]
COC(=O)[C@H](c1ccc(F)cc1)[C@H]1CCCCN1 (racemic) [(±)-erythro-4F-MPH, 4-Fluoromethylphenidate] | > 10 |  |  |  |  | 
COC(=O)[C@H](c1ccc(F)cc1)[C@H]1CCCCN1 (racemic) [(±)-threo-4F-MPH, 4-Fluoromethylphenidate] | 8.8 | 0.035 | about three times more potent than MPH |  |  | 
COC(=O)C(c1ccccc1)C1CCCCN1 (stereo not shown) [MPH, methyl-2-phenyl-2-(piperidin-2-yl)acetate] |  |  |  | 0.131 ± 0.0142 | around 2.5 | > 10

Reference: PMC5378611 (Drug testing and analysis, 2017)
